Source: patent US9765105B2, “Macrolide compound” (Pulike Biological Engineering, Inc., priority 2013, dated 2017)

How the values were obtained:
Experiment in all cases: in vitro susceptibility, MIC by mini broth dilution
Assay type in all cases: cell-based
[1] = test system: Staphylococcus aureus CVCC26003; details: strain CVCC26003
In short: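 MICs were determined by mini broth dilution under NCCLS standards in CAMHB, using revived S. aureus CVCC26003 subcultured 20 h at 35° C. Compounds were two-fold serially diluted in DMSO across 11 wells, with duplicate rows. Bacterial suspension was diluted 1:200 in medium before inoculation.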

[2] = test system: Actinobacillus pleuropneumoniae CVCC262; details: strain CVCC262
In short: (§1)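 Following the NCCLS standard, each compound is serially halved in DMSO to give 11 concentrations, run in duplicate alongside a control well. Inocula come from colonies grown 20 h at 35° C and are diluted 1:200 into broth; MIC is taken by mini broth dilution.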

Haemophilus parasuis = test system: Haemophilus parasuis
In short: as §1

[3] = test system: Pasteurella multocida CVCC399; details: strain CVCC399
In short: as §1

[4] = test system: Streptococcus equines CVCC556; details: strain CVCC556
In short: as §1

Row | SMILES | MIC values, Staphylococcus aureus CVCC26003 [1] | MIC values, Actinobacillus pleuropneumoniae CVCC262 [2] | MIC values, Haemophilus parasuis (Haemophilus parasuis) | MIC values, Pasteurella multocida CVCC399 [3] | MIC values, Streptococcus equines CVCC556 [4]
1 | CCCN1C[C@H](C)[C@@H](O)[C@](C)(O)[C@@H](CC)OC(=O)[C@H](C)[C@@H](O[C@H]2C[C@@](C)(OC)[C@](O)(CNCC3CCCCC3)[C@H](C)O2)[C@H](C)[C@@H](O[C@@H]2O[C@H](C)C[C@H](N(C)C)[C@H]2O)[C@](C)(O)C[C@H]1C [syzx-167] | 2 ug/mi | 2 ug/mi | 2 ug/mi | 4 ug/mi | 0.25 ug/mi
2 | CCCN1C[C@H](C)[C@@H](O)[C@](C)(O)[C@@H](CC)OC(=O)[C@H](C)[C@@H](O[C@H]2C[C@@](C)(OC)[C@](O)(CNCCOCCO)[C@H](C)O2)[C@H](C)[C@@H](O[C@@H]2O[C@H](C)C[C@H](N(C)C)[C@H]2O)[C@](C)(O)C[C@H]1C [syzx-143] | 0.25 ug/mi | 0.25 ug/mi | 0.25 ug/mi | 1 ug/mi | 0.25 ug/mi
3 | CCCN1CC(C)C(O)C(C)(O)C(CC)OC(=O)C(C)C(OC2CC(C)(OC)C(O)(CNNc3ccc(F)cc3)C(C)O2)C(C)C(OC2OC(C)CC(N(C)C)C2O)C(C)(O)CC1C (stereo not shown) [syzx-181] | 0.25 ug/mi | 0.5 ug/mi | 0.25 ug/mi | 1 ug/mi | 0.25 ug/mi
4 | CCC1OC(=O)C(C)C(OC2CC(C)(OC)C(O)(CNc3ccccc3)C(C)O2)C(C)C(OC2OC(C)CC(N(C)C)C2O)C(C)(O)CC(C)NCC(C)C(O)C1(C)O [syzx-4, (2R,3S,4R,5S,8R,10R,11R,12S,13S,14R)-13-[(2,6-dideoxy-3-C-methyl-3-O-methyl-4-C-[(phenylamino)methyl]-α-L-ribopyranosyl)oxy]-2-ethyl-3,4,10-trihydroxy-3,5,8,10,12,14-hexamethyl-11-[[3,4,6-trideoxy-3-(dimethylamino)-β-D-xylo-hexopyranosy]oxy]-1-oxa-7-azacyclopentadecan-15-one] | 1 ug/mi | 32 ug/mi | 0.5 ug/mi | 1 ug/mi | ≦0.25 ug/mi
5 | CC[C@H]1OC(=O)[C@H](C)[C@@H](O[C@H]2C[C@@](C)(OC)[C@](O)(C=NNc3ccc(F)cc3)[C@H](C)O2)[C@H](C)[C@@H](O[C@@H]2O[C@H](C)C[C@H](N(C)C)[C@H]2O)[C@](C)(O)C[C@@H](C)NC[C@H](C)[C@@H](O)[C@]1(C)O [syzx-81, (2R,3S,4R,5S,8R,10R,11R,12S,13S,14R)-13-[(2,6-dideoxy-3-C-methyl-3-O-methyl-4-C-[(4-fluoro-phenylhydrazono)-methyl]-α-L-ribopyranosyl)oxy]-2-ethyl-3,4,10-trihydroxy-3,5,8,10,12,14-hexamethyl-11-[[3,4,6-trideoxy-3-(dimethylamino)-β-D-xylo-hexopyranosy]oxy]-1-oxa-7-azacyclopentadecan-15-one] | ≦0.25 ug/mi | 2 ug/mi | ≦0.25 ug/mi | 0.25 ug/mi | ≦0.25 ug/mi
6 | CC[C@H]1OC(=O)[C@H](C)[C@@H](O[C@H]2C[C@@](C)(OC)[C@](O)(CNCCCC(OC)OC)[C@H](C)O2)[C@H](C)[C@@H](O[C@@H]2O[C@H](C)C[C@H](N(C)C)[C@H]2O)[C@](C)(O)C[C@@H](C)NC[C@H](C)[C@@H](O)[C@]1(C)O [syzx-56, (2R,3S,4R,5S,8R,10R,11R,12S,13S,14R)-13-[(2,6-dideoxy-3-C-methyl-3-O-methyl-4-C-[(4-dimethoxy-butylamino)-methyl]-α-L-ribopyranosyl)oxy]-2-ethyl-3,4,10-trihydroxy-3,5,8,10,12,14-hexamethyl-11-[[3,4,6-trideoxy-3-(dimethylamino)-β-D-xylo-hexopyranosy]oxy]-1-oxa-7-azacyclopentadecan-15-one] | 0.5 ug/mi | 0.25 ug/mi | 0.5 ug/mi | 1 ug/mi | 0.25 ug/mi
7 | CCCC(C)NC[C@]1(O)[C@H](C)O[C@@H](O[C@H]2[C@H](C)[C@@H](O[C@@H]3O[C@H](C)C[C@H](N(C)C)[C@H]3O)[C@](C)(O)C[C@@H](C)N(CCC)C[C@H](C)[C@@H](O)[C@](C)(O)[C@@H](CC)OC(=O)[C@@H]2C)C[C@@]1(C)OC (stereo partly shown) [syzx-163] | 0.25 ug/mi | 0.25 ug/mi | 0.25 ug/mi | 1 ug/mi | 0.25 ug/mi
8 | CCCN1C[C@H](C)[C@@H](O)[C@](C)(O)[C@@H](CC)OC(=O)[C@H](C)[C@@H](O[C@H]2C[C@@](C)(OC)[C@](O)(CNCc3ccc(Cl)cc3)[C@H](C)O2)[C@H](C)[C@@H](O[C@@H]2O[C@H](C)C[C@H](N(C)C)[C@H]2O)[C@](C)(O)C[C@H]1C [syzx-120] | 0.25 ug/mi | 0.25 ug/mi | 0.25 ug/mi | 0.5 ug/mi | 0.25 ug/mi
9 | CCCN1C[C@H](C)[C@@H](O)[C@](C)(O)[C@@H](CC)OC(=O)[C@H](C)[C@@H](O[C@H]2C[C@@](C)(OC)[C@](O)(CNC(=O)c3ccccc3)[C@H](C)O2)[C@H](C)[C@@H](O[C@@H]2O[C@H](C)C[C@H](N(C)C)[C@H]2O)[C@](C)(O)C[C@H]1C [syzx-219] | 2 ug/mi | 4 ug/mi | 4 ug/mi | 8 ug/mi | 0.5 ug/mi
10 | CCCN1C[C@H](C)[C@@H](O)[C@](C)(O)[C@@H](CC)OC(=O)[C@H](C)[C@@H](O[C@H]2C[C@@](C)(OC)[C@](O)(CNCc3cccnc3)[C@H](C)O2)[C@H](C)[C@@H](O[C@@H]2O[C@H](C)C[C@H](N(C)C)[C@H]2O)[C@](C)(O)C[C@H]1C [syzx-121] | 0.25 ug/mi | 0.25 ug/mi | 0.25 ug/mi | 0.5 ug/mi | 0.5 ug/mi
11 | CCCN1C[C@H](C)[C@@H](O)[C@](C)(O)[C@@H](CC)OC(=O)[C@H](C)[C@@H](O[C@H]2C[C@@](C)(OC)[C@](O)(Cn3ccnc3C)[C@H](C)O2)[C@H](C)[C@@H](O[C@@H]2O[C@H](C)C[C@H](N(C)C)[C@H]2O)[C@](C)(O)C[C@H]1C [syzx-238] | 1 ug/mi | 1 ug/mi | 1 ug/mi | 4 ug/mi | 0.25 ug/mi
